Where two headings read alike, the source gives them in different places.
What was measured:
[1] = system: BALB/c mouse spleen cells, B cells activated with lipopolysaccharide (LPS); assay: Immunosuppressive effect test using BALB/c mouse spleen cells, LPS (B cells); assay type: cell-based; settings: 20 μg/ml lipopolysaccharide, 72 hours, MTS, FIGS. 2 and 3
Description: (§1) This test was carried out to determine the immunosuppressive effect of an immunosuppressive candidate material by checking anti-proliferation of T cells and B cells. To identify the proliferation inhibitory extent, responding cells (BALB/c mouse spleen cells) were treated with an immunosuppressive candidate material, lipopolysaccharide (LPS) as a B cell activator and concanvalin A (ConA) as a T cell activator. It is known that the responding cells treated with LPS induce proliferation of B cells and those treated with ConA induce proliferation of T cells.
(§2) Responding cells (BALB/c mouse spleen cells) were seeded into each well of 96-well plates at a concentration of 2×10^5 cells/well. […] After culturing for 72 hours at a CO2 incubator, a 20 μl MTS solution was added to each well, followed by further culturing for 2 to 4 hours and measuring OD at 490 nm using ELISA.

[2] = system: WP2 uvrA strains (tryptophan auxotrophic strains); assay: Reverse mutation assay (Ames test), E. coli WP2 uvrA
Description: (§3) This assay is carried out to test mutagenicity of chemical substances using histidine auxotrophic strains that are one of Salmonella Typhimurium mutants. […] When various mutagens are added to the culture medium, only revertants generated by reverse mutation survive.
(§4) Ames test was carried out using […]. […] After incubation, the number of revertant colonies was counted. 3 plates were prepared for each test and the average was calculated.

TA1537 = assay: Reverse mutation assay (Ames test), TA1537
Description: as §3, §4

SKMEL-2 (human melanoma) = assay: SRB cytotoxicity assay, SK-MEL-2; assay type: cell-based; settings: SK-MEL-2, 72 h, read-out: ED50 SK-MEL-2
Description: (§5) Human tumor cells, including MCF-7 (human breast adenomatous tumor), MCF-7/DOX (adriamycin resistant cell strain), MRS-SA (human uterine sarcoma), MES-SA/DX5 (adriamycin resistant cell strain), A 549 (human non-small cell lung), SKOV-3 (human ovarian), SKMEL-2 (human melanoma), XF-498 (human CNS), HCT-15 (human colon) were incubated at 37° C. in the presence of 5% CO2 using a DMEM culture medium. The respective cells were seeded into each well of 96-well plates at a concentration of 2×10^3˜5×10^3 cells/well. […] Each cell line of the resultant plates was fixed with trichloroacetic acid (TCA), stained with 0.4% SRB solution and rinsed with 1% acetic acid. Thereafter, the dye was dissolved in 10 mM Tris base to measure the optical density (OD) at 520 nm.

SKOV-3 (human ovarian) = assay: SRB cytotoxicity assay, SK-OV-3; assay type: cell-based; settings: 72 hours, read-out: ED50 SK-OV-3
Description: as §5

HCT-15 (human colon) = assay: SRB cytotoxicity assay, HCT15; assay type: cell-based; settings: HCT-15, 72 h, read-out: ED50 HCT15
Description: as §5

[3] = system: MCF-7/DOX (adriamycin resistant cell strain); assay: SRB cytotoxicity assay, MCF-7/DOX; assay type: cell-based; settings: Homo sapiens, MCF7-DOX, 72 h, read-out: ED50 MCF-7/DOX
Description: as §5

[4] = system: MCF-7 (human breast adenomatous tumor); assay: SRB cytotoxicity assay, MCF7; assay type: cell-based; settings: MCF7, 72 h, read-out: ED50 MCF7
Description: as §5

[5] = system: BALB/c mouse spleen cells, T cells activated with concanvalin A (ConA); assay: Immunosuppressive effect test using BALB/c mouse spleen cells, ConA (T cells); assay type: cell-based; settings: 2 μg/ml of ConA, 72 hours, MTS, FIGS. 2 and 3
Description: as §1, §2

ICR mice [6] = assay: Acute (intravenous administration) toxicity assay; settings: for Days for the test (death) Total: deaths/mice
[7] = system: MES-SA/DX5 (adriamycin resistant cell strain); assay: SRB cytotoxicity assay, MES-SA/DX5; assay type: cell-based; settings: Homo sapiens, MES-SA/Dx5, 72 h, read-out: ED50 MES-SA/DX5
Description: as §5

ICR mice [8] = assay: Oral administration toxicity assay; settings: for Days for the test (death) Total: deaths/mice
TA98 = system: TA98
Description: as §3, §4

[9] = system: BALB/c mouse spleen cell (responding) and DBA/2 mouse spleen cell (stimulating); assay type: cell-based; settings: MLR, FIG. 1
Description: MLR tests were carried out to determine the immunosuppressive effect of an immunosuppressive candidate material. When a responding cell (BALB/c mouse spleen cell) and a stimulating cell (DBA/2 mouse spleen cell) were cultured separately, the cells grew little. On the contrary, when the cells were simultaneously cultured, the cells were proliferated due to induction of an antigen-antibody reaction. The proliferated cells were treated with the immunosuppressive candidate material for measurement of the proliferation inhibitory extent.
After culturing for 72 hours at a CO2 incubator, a 20 μl MTS solution was added to each well, followed by further culturing for 2 to 4 hours and measuring OD at […] by using ELISA.

[10] = system: A 549 (human non-small cell lung); assay: SRB cytotoxicity assay, A549; assay type: cell-based; settings: A549, 72 h, read-out: ED50 A549
Description: as §5

[11] = system: MES-SA (human uterine sarcoma); assay: SRB cytotoxicity assay, MES-SA; assay type: cell-based; settings: 72 h, read-out: ED50 MES-SA
Description: as §5

SMILES: COc1cc2c(c(OC)c1OC)-c1ccc(OC)c(=O)cc1[C@@H](NC(=O)c1cccc(CO[N+](=O)[O-])c1)CC2 [Compound 6, 3-nitrooxymethyl-N-(1,2,3,10-tetramethoxy-9-oxo-5,6,7,9-tetrahydro-benzo[a]heptarene-7-yl)-benzamide]
- anti-proliferation of B cells [1]: remarkable anti-proliferous effect
- Colony/Plate S-9 Mixture (+) ([2]; 317.5 μg/Plate): 12 Colony/Plate
- Colony/Plate S-9 Mixture (−) ([2]; 317.5 μg/Plate): 16 Colony/Plate
- Colony/Plate S-9 Mixture (+) ([2]; 625 μg/Plate): 12 Colony/Plate
- Colony/Plate S-9 Mixture (−) ([2]; 625 μg/Plate): 9 Colony/Plate
- Colony/Plate S-9 Mixture (+) ([2]; 1250 μg/Plate): 12 Colony/Plate
- Colony/Plate S-9 Mixture (−) ([2]; 1250 μg/Plate): 10 Colony/Plate
- Colony/Plate S-9 Mixture (+) ([2]; 2500 μg/Plate): 9 Colony/Plate
- Colony/Plate S-9 Mixture (−) ([2]; 2500 μg/Plate): 8 Colony/Plate
- Colony/Plate S-9 Mixture (+) ([2]; 5000 μg/Plate): 13 Colony/Plate
- Colony/Plate S-9 Mixture (−) ([2]; 5000 μg/Plate): 11 Colony/Plate
- Colony/Plate S-9 Mixture (+) (TA1537; TA1537, 317.5 μg/Plate): 11 Colony/Plate
- Colony/Plate S-9 Mixture (−) (TA1537; TA1537, 317.5 μg/Plate): 8 Colony/Plate
- Colony/Plate S-9 Mixture (+) (TA1537; TA1537, 625 μg/Plate): 16 Colony/Plate
- Colony/Plate S-9 Mixture (−) (TA1537; TA1537, 625 μg/Plate): 10 Colony/Plate
- Colony/Plate S-9 Mixture (+) (TA1537; TA1537, 1250 μg/Plate): 13 Colony/Plate
- Colony/Plate S-9 Mixture (−) (TA1537; TA1537, 1250 μg/Plate): 16 Colony/Plate
- Colony/Plate S-9 Mixture (+) (TA1537; TA1537, 2500 μg/Plate): 17 Colony/Plate
- Colony/Plate S-9 Mixture (−) (TA1537; TA1537, 2500 μg/Plate): 11 Colony/Plate
- Colony/Plate S-9 Mixture (+) (TA1537; TA1537, 5000 μg/Plate): 14 Colony/Plate
- Colony/Plate S-9 Mixture (−) (TA1537; TA1537, 5000 μg/Plate): 7 Colony/Plate
- EC50 (SKMEL-2 (human melanoma)): 100 pM
- EC50 (SKOV-3 (human ovarian)): 200 pM
- EC50 (HCT-15 (human colon)): 100 pM
- EC50 [3]: 205000 pM
- EC50 [4]: 20 pM
- anti-proliferation of T cells [5]: remarkable anti-proliferous effect
- Days for the test (death) Total (ICR mice [6]; 5 mg/kg): 0/5
- Days for the test (death) Total (ICR mice [6]; 10 mg/kg): 0/5
- Days for the test (death) Total (ICR mice [6]; 25 mg/kg): 0/2
- Days for the test (death) 1 (ICR mice [6]; 50 mg/kg, day 1): 3
- Days for the test (death) Total (ICR mice [6]; 50 mg/kg): 3/3
- EC50 [7]: 773000 pM
- Days for the test (death) Total (ICR mice [8]; 2 mg/kg): 0/5
- Days for the Test (death) 4 (ICR mice [8]; 5 mg/kg, day 4): 1
- Days for the test (death) Total (ICR mice [8]; 5 mg/kg): 1/5
- Days for the test (death) 2 (ICR mice [8]; 10 mg/kg, day 2): 1
- Days for the Test (death) 3 (ICR mice [8]; 10 mg/kg, day 3): 1
- Days for the test (death) Total (ICR mice [8]; 10 mg/kg): 2/5
- Colony/Plate S-9 Mixture (+) (TA98; TA98, 317.5 μg/Plate): 32 Colony/Plate
- Colony/Plate S-9 Mixture (−) (TA98; TA98, 317.5 μg/Plate): 21 Colony/Plate
- Colony/Plate S-9 Mixture (+) (TA98; TA98, 625 μg/Plate): 29 Colony/Plate
- Colony/Plate S-9 Mixture (−) (TA98; TA98, 625 μg/Plate): 32 Colony/Plate
- Colony/Plate S-9 Mixture (+) (TA98; TA98, 1250 μg/Plate): 33 Colony/Plate
- Colony/Plate S-9 Mixture (−) (TA98; TA98, 1250 μg/Plate): 24 Colony/Plate
- Colony/Plate S-9 Mixture (+) (TA98; TA98, 2500 μg/Plate): 22 Colony/Plate
- Colony/Plate S-9 Mixture (−) (TA98; TA98, 2500 μg/Plate): 22 Colony/Plate
- Colony/Plate S-9 Mixture (+) (TA98; TA98, 5000 μg/Plate): 23 Colony/Plate
- Colony/Plate S-9 Mixture (−) (TA98; TA98, 5000 μg/Plate): 19 Colony/Plate
- immunosuppressive effect [9]: good immunosuppressive effect
- EC50 [10]: 100 pM
- EC50 [11]: 200 pM

Source: patent US7119229B2 (priority 2001, dated 2006)
